Where “and” joins values, the source holds several entries; their conditions need not be identical. Identical values can stand only once. Square brackets hold non-standard residues; d marks the D form. Peptide text beside a SMILES is read from it. * marks the point of attachment. dPhe(4-NHCONH2) = NC(=O)Nc1ccc(C[C@@H](N)C(=O)O)cc1; Dihydroorotyl(S) = O=C1C[C@@H](C(=O)*)NC(=O)N1; dPhe(4-Cl) = N[C@H](Cc1ccc(Cl)cc1)C(=O)O; Phe(4-NH2) = Nc1ccc(C[C@H](N)C(=O)O)cc1; d2Nal = N[C@H](Cc1ccc2ccccc2c1)C(=O)O; Lys(iPr) = CC(C)NCCCC[C@H](N)C(=O)O; NMeY = CN[C@@H](Cc1ccc(O)cc1)C(=O)O; d3Pal = N[C@H](Cc1cccnc1)C(=O)O

Test [1] addresses GnRH receptor on bovine pituitary gonadotrophs (bovine) (UniProt P32236). The experiment in a line: cell-based or functional assay.
Chain of UniProt P32236 (P32236 whole entry): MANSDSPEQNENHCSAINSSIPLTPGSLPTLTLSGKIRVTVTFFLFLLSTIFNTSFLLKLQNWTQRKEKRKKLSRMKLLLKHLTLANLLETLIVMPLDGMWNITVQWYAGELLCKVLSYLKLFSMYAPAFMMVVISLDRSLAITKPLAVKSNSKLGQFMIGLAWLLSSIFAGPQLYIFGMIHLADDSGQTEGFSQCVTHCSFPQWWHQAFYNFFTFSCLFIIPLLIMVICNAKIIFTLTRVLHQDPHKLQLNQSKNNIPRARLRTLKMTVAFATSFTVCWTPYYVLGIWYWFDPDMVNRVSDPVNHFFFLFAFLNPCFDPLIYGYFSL
A further test deals with bovine pituitary cells. The experiment in a line: GnRH-induced LH secretion of bovine pituitary cells in vitro (Example 9). It counts as cell-based. The settings on record: for LH conc in medium: 300 μg cetrorelix, 340 μg Degarelix, 300 ug Abarelix, 130 μg Relugolix. As to the method:
Methods: The heads of mature, non-pregnant cows (n=4) were collected from a local abattoir and the pituitary glands were dissected within 60 minutes of slaughter. Immediately following the dissection, the pituitaries were submerged into ice-cold collection medium. The pituitaries were washed 3 times in collection media and the neurohypophysis was dissected from the adenohypophysis. Using a scalpel, the adenohypophysis (anterior pituitary) was sliced into 1 mm×1 mm pieces and transferred to a 50 mL falcon tube containing DMEM medium with 0.5% BSA. The tissue pieces were washed by manually agitating the tube for 1 minute. The tissue pieces were allowed to settle to the bottom of the tube, then the supernatant was discarded. The macerated pieces were transferred to a 15 mL falcon tube with the dissociation medium and incubated at 37° C. for 60 minutes. Every 10 minutes the tube was vortexed for 1 minute to ensure the tissue was completely dissociated. The dissociation media was inactivated using DMEM with 10% SFB then manually agitating the tube for 1 minute. The dissociated cells were placed in a 40 μm cell strainer to remove the undigested tissue and placed into two 15 mL falcon tubes. The cells were centrifuged at 200×g for 10 minutes and the supernatant was discarded. The cells were washed three times by resuspending in DMEM solution with red blood cell lysing buffer followed by centrifuged at 200×g for 10 minutes. Then the cells were washed with DMEM solution and centrifuged at 200×g for 10 minutes. Following the last centrifugation, the cells were resuspended in DMEM, and the trypan blue test was used to determine the cell count and assess viability. DMEM with 10% fetal bovine serum (FBS) was treated with 10% charcoal-dextran and passed through a 0.2 μm filter. The cells were then plated in a 24-well tissue culture plate with a concentration of 1×10^6 viable cells per well and incubated at 37° C. for 24 hours. The following day, to starve the cells, the culture media was replaced with DMEM without FBS and left to incubate for another 24 hours.
Treatments: Based on the results from the pilot study, the selected concentration for Cetrorelix (cetrorelix acetate) was 300 μg. The cetrorelix was dissolved in trace levels of DMSO then dissolved in ultrapure water. To standardize the treatments, the nanomole concentration of each GnRH antagonist were matched with the cetrorelix nanomole concentration. The final concentration used for further experiments were: 300 μg for cetrorelix, 340 μg for Degarelix (Degarelix acetate), 300 ug for Abarelix (Abarelix acetate). Both degarelix and abarelix were dissolved ultrapure water. The equivalent Relugolix nanomole concentration was 130 μg which was dissolved in methanol. Treatment cells were preincubated for 60 minutes with either Cetrorelix, Degarelix, Relugolix or Abarelix. Following the preincubation, the cells were incubated for 30 minutes with either 1 nM or 10 nM of GnRH (Gonadorelin, Fertagyl, Merck Animal Health). GnRH doses were based on pituitary study by Paolicchi et al. 1999). The media were collected and centrifuged at 200×g for 10 minutes to remove the cells. Positive (Control) group was only treated with 1 nM and 10 nM of GnRH to determine the maximum LH secretion. LH concentrations in the culture medium was measured by a commercial bovine specific ELISA kit and reported as mIU/ml of medium.

Test [2] deals with GnRH-induced plasma LH levels and ovulation. The experiment in a line: GnRH challenge in heifers pre-treated with GnRH antagonists: plasma LH and ovulation (Example 10). The settings on record: for Plasma LH response to GnRH challenge: heifers pre-treated with antagonist 60 minutes before GnRH injection; for Ovulation (Yes/No) within 48 hr of GnRH treatment / Plasma LH concentration at 60 minute, group Mean / Plasma LH concentration at 120 minute, group Mean / Plasma LH concentration at −60 minute, group Mean / Plasma LH concentration at 0 minute, group Mean: heifers; for Ovulation (Yes/No) within 48 hr of GnRH treatment / Dominant follicle diameter (mm) 48 hr after GnRH Injection / Dominant follicle diameter (mm) at GnRH injection: 3 mg antagonist 60 min before GnRH; for Plasma LH concentration at 60 minute, group Mean / Plasma LH concentration at 120 minute, group Mean / Plasma LH concentration at 60 minute / Plasma LH concentration at 120 minute: after GnRH injection; for Plasma LH concentration at −60 minute, group Mean / Plasma LH concentration at −60 minute: time of 3 mg GnRH antagonist injection; for Plasma LH concentration at 0 minute, group Mean / Plasma LH concentration at 0 minute: time of GnRH injection; for Dominant follicle diameter (mm) 48 hr after GnRH Injection / Dominant follicle diameter (mm) at GnRH injection / Plasma LH concentration at 60 minute / Plasma LH concentration at 120 minute / Plasma LH concentration at −60 minute / Plasma LH concentration at 0 minute: individual heifers; for Plasma LH concentration at 60 minute / Plasma LH concentration at 120 minute / Plasma LH concentration at 0 minute: 3 mg antagonist at −60 min; for Plasma LH concentration at −60 minute: 60 mins before GnRH. It counts as in vivo, cattle. How it is done: Methods: Pubertal heifers (n=10) with a functional CL were selected at the Federal University of Santa Maria. Heifers were administered an intramuscular (i/m) injection of prostaglandin F2a analog (PGF; Lutalyse 5 ml or Estrumate 2 ml) to induce CL regression. Heifers were randomly placed into 4 treatment groups at the time of PGF injection: Trt1 (n=2, 3 mg of Abarelix); Trt2 (n=2, 3 mg of Degarelix), Trt3 (n=2, 3 mg of Relugolix) and Trt 4 (n=4; Cetrorelix 3 mg). Heifers were treated with these GnRH antagonists 1.5 days (36 hr) after the PGF injection and the GnRH antagonist treatment time point was defined as −60 mins. Heifers were treated with GnRH ([…] of Fertagyl i/m) at 0 mins to induce ovulation. Jugular venipuncture plasma samples were collected every 60 minutes for 3 hours (from −60 min to 120 minutes, with t=0 min when GnRH is administered). Plasma samples were kept at 4C overnight and LH analysis was performed the next day using a bovine-specific ELISA commercial kit. Transrectal ultrasonography was conducted to the time of GnRH injection (Time 0 hr) and 2 days later (48 hr after GnRH injection) to record the size of dominant follicle and to detect ovulation after treatment.

The mark [3] stands for this setting: challenged with 1 nM GnRH 30 minutes after 60 minutes preincubation.
Where [4] appears, read: challenged with 10 nM GnRH 30 minutes after 60 minutes preincubation.

In test [1], Abarelix (Abarelix acetate) (peptide) gave an LH conc (mIU/mL) in medium from bovine pituitary cells in vitro, preincubated 60 min with the antagonist, then challenged 30 min with 1 nM GnRH (control without antagonist: 2.01) of 2.21 mIU/mL and an LH conc (mIU/mL) in medium from bovine pituitary cells in vitro, preincubated 60 min with the antagonist, then challenged 30 min with 10 nM GnRH (control without antagonist: 2.49) of 2.15 mIU/mL.

Consider `CC(=O)N[C@H](Cc1ccc2ccccc2c1)C(=O)N[C@H](Cc1ccc(Cl)cc1)C(=O)N[C@H](Cc1cccnc1)C(=O)N[C@@H](CO)C(=O)N(C)[C@@H](Cc1ccc(O)cc1)C(=O)N[C@H](CC(N)=O)C(=O)N[C@@H](CC(C)C)C(=O)N[C@@H](CCCCNC(C)C)C(=O)N1CCC[C@H]1C(=O)N[C@H](C)C(N)=O` [Abarelix, N-acetyl-3-(2-naphthyl)-D-alanyl-4-chloro-D-phenylalanyl-3-(3-pyridyl)-D-alanyl-L-seryl-N-methyl-L-tyrosyl-D-asparagyl-L-leucyl-N6-isopropyl-L-lysyl-L-prolyl-D-alaninamide] (Ac-[d2Nal][dPhe(4-Cl)][d3Pal]S[NMeY][dN]L[Lys(iPr)]P[dA]-NH2), for which the “Effect on LH suppression” value in the test with bovine pituitary cells (1 nM GnRH challenge) is “no effect”. Besides, in the test on bovine pituitary cells (10 nM challenge), the “Effect on LH concentration” value is on record as “modest decrease”. Moreover, the “LH conc in medium” value in the test on bovine pituitary cells (setting [3]) came out at 2.21 mIU/mL. In the test with bovine pituitary cells (setting [4]), the “LH conc in medium” value came out at 2.15 mIU/mL. Moreover, in test [2], the “Plasma LH response to GnRH challenge” value is listed as “did not register an increase in LH”; the “Ovulation (Yes/No) within 48 hr of GnRH treatment” value (from here on “Ovulation (Yes/No) within 48 hr”) was “No”; the “Plasma LH concentration at 60 minute, group Mean” value was 10.49 mIU/ml; the “Plasma LH concentration at 120 minute, group Mean” value is recorded as 11.23 mIU/ml. In test [2], the “Plasma LH concentration at −60 minute, group Mean” value was 9.43 mIU/ml; the “Plasma LH concentration at 0 minute, group Mean” value is given as 11.26 mIU/ml; the “Dominant follicle diameter (mm) 48 hr after GnRH Injection” value (shortened to “Dominant follicle diameter (mm) 48 hr”) was 14 mm and 12 mm; the “Dominant follicle diameter (mm) at GnRH injection” value was 14.4 mm and 13.6 mm. In addition, in test [2], the “Plasma LH concentration at 60 minute” value was 8.96 mIU/ml and 12.02 mIU/ml; the “Plasma LH concentration at 120 minute” value is 9.32 mIU/ml and 13.14 mIU/ml; the “Plasma LH concentration at −60 minute” value was 8.65 mIU/ml and 10.21 mIU/ml; the “Plasma LH concentration at 0 minute” value was 8.98 mIU/ml and 13.54 mIU/ml. For the same molecule, in test [2] (listed as abarelix), the “Plasma LH response to GnRH challenge” value is “block the GnRH-induced LH release” and the “Ovulation (Yes/No) within 48 hr” value is “prevent GnRH-induced ovulations”.

Take Degarelix (Degarelix acetate) (peptide): in test [1], the LH conc (mIU/mL) in medium from bovine pituitary cells in vitro, preincubated 60 min with the antagonist, then challenged 30 min with 1 nM GnRH (control without antagonist: 2.01) was 1.33 mIU/mL and the LH conc (mIU/mL) in medium from bovine pituitary cells in vitro, preincubated 60 min with the antagonist, then challenged 30 min with 10 nM GnRH (control without antagonist: 2.49) turned out to be 1.21 mIU/mL.

For `CC(=O)N[C@H](Cc1ccc2ccccc2c1)C(=O)N[C@H](Cc1ccc(Cl)cc1)C(=O)N[C@H](Cc1cccnc1)C(=O)N[C@@H](CO)C(=O)N[C@@H](Cc1ccc(NC(=O)[C@@H]2CC(=O)NC(=O)N2)cc1)C(=O)N[C@H](Cc1ccc(NC(N)=O)cc1)C(=O)N[C@@H](CC(C)C)C(=O)N[C@@H](CCCCNC(C)C)C(=O)N1CCC[C@H]1C(=O)N[C@H](C)C(N)=O` [Degarelix, N-acetyl-3-(2-naphthyl)-D-alanyl-4-chloro-D-phenylalanyl-3-(3-pyridyl)-D-alanyl-L-seryl-4-((S)-dihydroorotamido)-L-phenylalanyl-4-ureido-D-phenylalanyl-L-leucyl-N6-isopropyl-L-lysyl-L-prolyl-D-alaninamide] (Ac-[d2Nal][dPhe(4-Cl)][d3Pal]S[Phe(4-NH2)](Dihydroorotyl(S))[dPhe(4-NHCONH2)]L[Lys(iPr)]P[dA]-NH2), the “LH conc in medium” value with bovine pituitary cells (setting [3]) is 1.33 mIU/mL. Further, in the test with bovine pituitary cells (setting [4]), the “LH conc in medium” value stood at 1.21 mIU/mL. For the same molecule, in test [2], the “Plasma LH response to GnRH challenge” value was “did not register an increase in LH”; the “Ovulation (Yes/No) within 48 hr” value is “No”; the “Plasma LH concentration at 60 minute, group Mean” value is 8.60 mIU/ml; the “Plasma LH concentration at 120 minute, group Mean” value worked out at 8.62 mIU/ml. Moreover, in test [2], the “Plasma LH concentration at −60 minute, group Mean” value is recorded as 8.14 mIU/ml; the “Plasma LH concentration at 0 minute, group Mean” value stood at 8.89 mIU/ml; the “Dominant follicle diameter (mm) 48 hr” value is 12 mm and 13.2 mm; the “Dominant follicle diameter (mm) at GnRH injection” value is 14 mm and 15.1 mm. In test [2], the “Plasma LH concentration at 60 minute” value was 4.87 mIU/ml and 12.32 mIU/ml; the “Plasma LH concentration at 120 minute” value was 5.25 mIU/ml and 11.98 mIU/ml; the “Plasma LH concentration at −60 minute” value is 5.54 mIU/ml and 10.74 mIU/ml; the “Plasma LH concentration at 0 minute” value was 5.37 mIU/ml and 12.41 mIU/ml. Also, in test [2] (listed as degarelix), the “Plasma LH response to GnRH challenge” value is reported as “block the GnRH-induced LH release” and the “Ovulation (Yes/No) within 48 hr” value is “prevent GnRH-induced ovulations”.

For `CONC(=O)Nc1ccc(-c2sc3c(c2CN(C)C)c(=O)n(-c2ccc(OC)nn2)c(=O)n3Cc2c(F)cccc2F)cc1` [Relugolix, 1-[4-[1-[(2,6-difluorophenyl)methyl]-5-[(dimethylamino)methyl]-3-(6-methoxypyridazin-3-yl)-2,4-dioxothieno[2,3-d]pyrimidin-6-yl]phenyl]-3-methoxyurea], the “LH conc in medium” value in the test with bovine pituitary cells (setting [3]) is given as 1.72 mIU/mL. Also, the “LH conc in medium” value with bovine pituitary cells (setting [4]) amounted to 1.47 mIU/mL. In test [2], the “Plasma LH response to GnRH challenge” value is “did not register an increase in LH”; the “Ovulation (Yes/No) within 48 hr” value was “No”; the “Plasma LH concentration at 60 minute, group Mean” value was 13.94 mIU/ml; the “Plasma LH concentration at 120 minute, group Mean” value is 6.97 mIU/ml. Moreover, in test [2], the “Plasma LH concentration at −60 minute, group Mean” value amounted to 18.48 mIU/ml; the “Plasma LH concentration at 0 minute, group Mean” value is given as 19.92 mIU/ml; the “Dominant follicle diameter (mm) 48 hr” value was 10 mm; the “Dominant follicle diameter (mm) at GnRH injection” value is 9.8 mm and 12.1 mm. Also, in test [2], the “Plasma LH concentration at 60 minute” value is 22.66 mIU/ml and 5.22 mIU/ml; the “Plasma LH concentration at 120 minute” value is 9.71 mIU/ml and 4.23 mIU/ml; the “Plasma LH concentration at −60 minute” value was 30.96 mIU/ml and 5.99 mIU/ml; the “Plasma LH concentration at 0 minute” value is 33.09 mIU/ml and 6.75 mIU/ml. Moreover, in test [2] (listed as relugolix), the “Plasma LH response to GnRH challenge” value is listed as “block the GnRH-induced LH release” and the “Ovulation (Yes/No) within 48 hr” value was “prevent GnRH-induced ovulations”.

The values are drawn from US20260034192A1 (University of Saskatchewan, priority 2022, published 2026).
